Structures can show the parent of a compound that is named as a salt.

The source of these data is US10780090B2, “Heteroaryl compounds useful as inhibitors of SUMO activating enzyme” (Millennium Pharmaceuticals, Inc., priority 2014, dated 2020).

The target of this assay is recombinant human SAE enzyme (Homo sapiens (Human), UniProt Q9UBT2). Kind of assay: SAE HTRF enzyme assay. Type of assay: biochemical. In outline: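 First, recombinant human SAE (0.11 nM) transfers Sumo-Flag onto Ubc9-GST using 0.5 μM ATP for 105 min at 24° C. Next, EDTA-containing detection buffer with labelled anti-Flag and anti-GST antibodies is added for 2 h. Finally, FRET is quantified and percent inhibition or IC50 derived.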
Background: TR-FRET usually uses a lanthanide donor and a delayed reading to cut background.

Setting [1] is: SAE inhibition at compound concentration 0.111 μM.
The mark [2] stands for this setting: SAE inhibition, class symbols, legend in nM.

recombinant human SAE enzyme, sequence (Q9UBT2 whole entry): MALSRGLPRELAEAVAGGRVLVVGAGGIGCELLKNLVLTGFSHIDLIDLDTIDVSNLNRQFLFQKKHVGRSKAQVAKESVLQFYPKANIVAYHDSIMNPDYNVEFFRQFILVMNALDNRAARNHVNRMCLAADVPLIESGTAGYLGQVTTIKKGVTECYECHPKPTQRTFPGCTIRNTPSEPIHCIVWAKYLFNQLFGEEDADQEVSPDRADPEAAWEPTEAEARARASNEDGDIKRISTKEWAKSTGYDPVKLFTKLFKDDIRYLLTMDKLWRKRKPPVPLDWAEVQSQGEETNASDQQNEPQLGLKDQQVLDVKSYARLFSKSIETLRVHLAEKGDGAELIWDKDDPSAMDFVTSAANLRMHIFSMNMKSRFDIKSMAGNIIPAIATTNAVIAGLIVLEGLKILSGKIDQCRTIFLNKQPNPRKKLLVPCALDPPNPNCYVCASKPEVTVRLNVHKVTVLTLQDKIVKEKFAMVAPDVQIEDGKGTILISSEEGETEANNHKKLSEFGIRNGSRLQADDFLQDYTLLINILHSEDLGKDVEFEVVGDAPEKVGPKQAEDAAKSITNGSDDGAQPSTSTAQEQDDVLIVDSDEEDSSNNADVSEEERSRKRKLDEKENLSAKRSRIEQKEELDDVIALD
recombinant human SAE enzyme, sequence (Q9UBE0 whole entry partner): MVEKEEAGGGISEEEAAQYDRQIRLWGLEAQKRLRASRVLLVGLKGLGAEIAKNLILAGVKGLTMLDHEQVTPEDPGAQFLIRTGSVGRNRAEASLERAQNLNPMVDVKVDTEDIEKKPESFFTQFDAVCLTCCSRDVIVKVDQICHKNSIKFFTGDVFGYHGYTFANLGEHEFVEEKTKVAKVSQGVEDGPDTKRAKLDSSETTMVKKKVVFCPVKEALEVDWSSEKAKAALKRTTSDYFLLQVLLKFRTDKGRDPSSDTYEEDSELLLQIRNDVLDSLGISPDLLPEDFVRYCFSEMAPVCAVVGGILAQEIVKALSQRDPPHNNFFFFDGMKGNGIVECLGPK

One may read the IC50 as the concentration that inhibits the measured activity by half. As to `Cc1sc(C(=O)c2cncnc2N[C@@H]2C[C@H](COS(N)(=O)=O)[C@@H](OC(=O)[C@H](C)N)C2)cc1[C@@H]1OCCc2ccc(Cl)cc21` [I-362, [(1S,2R,4R)-4-[5-[4-[(1R)-7-chloroisochroman-1-yl]-5-methyl-thiophene-2-carbonyl]pyrimidin-4-yl]amino]-2-(sulfamoyloxymethyl)cyclopentyl] (2S)-2-aminopropanoate; hydrochloride], the “Percent Inhibition” value under setting [1] stood at 91%. Also, the IC50 under setting [2] lay within 10 to 100 nM.
Consider `CC[C@H](C)[C@H](N)C(=O)O[C@H]1C[C@H](Nc2ncncc2C(=O)c2cc([C@@H]3OCCc4ccc(Cl)cc43)c(C)s2)C[C@@H]1COS(N)(=O)=O.Cl` [I-363, [(1S,2R,4R)-4-[[5-[4-[(1R)-7-chloroisochroman-1-yl]-5-methyl-thiophene-2-carbonyl]pyrimidin-4-yl]amino]-2-(sulfamoyloxymethyl)cyclopentyl (2S,3S)-2-amino-3-methyl-pentanoate hydrochloride], for which the IC50 under setting [2] lay in the range of 100 to 1000 nM.
As for `CC[C@H](C)[C@H](N)C(=O)O[C@H]1C[C@H](Nc2ncncc2C(=O)c2cc([C@@H]3OCCc4ccc(Cl)cc43)c(C)s2)C[C@@H]1COS(N)(=O)=O.Cl` [I-363], the “Percent Inhibition” value under setting [1] was found to be 57%.
Broadly, the inhibition is the relative decrease from the control value, in per cent. For the compound `Cc1sc(C(=O)c2cncnc2N[C@@H]2C[C@H](COS(N)(=O)=O)[C@@H](OC(=O)Cc3ccc(OP(=O)(O)O)cc3)C2)cc1[C@@H]1OCCc2ccc(Cl)cc21` [I-364, [(1S,2R,4R)-4-[[5-[4-[(1R)-7-chloroisochroman-1-yl]-5-methyl-thiophene-2-carbonyl]pyrimidin-4-yl]amino]-2-(sulfamoyloxymethyl)cyclopentyl] 2-(4-phosphonooxyphenyl)acetate], the inhibition at 0.111 µM (SAE inhibition at compound concentration 0.111 μM, read-out: Percent Inhibition) came to 13%.
On to `NS(=O)(=O)OC[C@H]1C[C@@H](Nc2ncncc2C(=O)c2cc([C@H]3OCCc4cccc(Cl)c43)cs2)C[C@@H]1O` [I-365, [(1R,2S,4R)-4-[[5-[4-[(1S)-chloroisochroman-1-yl]thiophene-2-carbonyl]pyrimidin-4-yl]amino]-2-hydroxy-cyclopentyl]methyl sulfamate and [(1R,2S,4R)-4-[[5-[4-[(1R)-8-chloroisochroman-1-yl]thiophene-2-carbonyl]pyrimidin-4-yl]amino]-2-hydroxy-cyclopentyl]methyl sulfamate], for which, under setting [1], the “Percent Inhibition” value worked out at 62%. Moreover, under setting [2], the IC50 was 10 to 100 nM.
Turning to “[(1R,2S,4R)-2-hydroxy-4-({5-[(5-methyl-4-{(R)-[3-(trifluoromethyl)phenyl]sulfinyl}-2-thienyl)carbonyl]pyrimidin-4-yl}amino)cyclopentyl]methyl sulfamate and [(1R,2S,4R)-2-hydroxy-4-({5-[(5-methyl-4-{(S)-[3-(trifluoromethyl)phenyl]sulfinyl}-2-thienyl)carbonyl]pyrimidin-4-yl}amino)cyclopentyl]methyl sulfamate [I-69]”, the “Percent Inhibition” value (Concentration 0.111 μM) is on record as 100. Moreover, the IC50 (class symbols A/B/C) is below 10 nM.
As for “[(1R,2S,4R)-2-hydroxy-4-{[5-({4-[(1R)-2-methyl-2,3-dihydro-1H-isoindol-1-yl]-2-thienyl}carbonyl)pyrimidin-4-yl]amino}cyclopentyl]methyl sulfamate and [(1R,2S,4R)-2-hydroxy-4-{[5-({4-[(1S)-2-methyl-2,3-dihydro-1H-isoindol-1-yl]-2-thienyl}carbonyl)pyrimidin-4-yl]amino}cyclopentyl]methyl sulfamate [I-308]”, the “Percent Inhibition” value under setting [1] was 98%. In addition, the IC50 under setting [2] was below 10 nM.
For the compound “[(1R,2S,4R)-4-{[5-({4-[(1R)-7-bromo-1,2,3,4-tetrahydroisoquinolin-1-yl]-5-chloro-2-thienyl}carbonyl)pyrimidin-4-yl]amino}-2-hydroxycyclopentyl]methyl sulfamate and [(1R,2S,4R)-4-{[5-({4-[(1S)-7-bromo-1,2,3,4-tetrahydroisoquinolin-1-yl]-5-chloro-2-thienyl}carbonyl)pyrimidin-4-yl]amino}-2-hydroxycyclopentyl]methyl sulfamate [I-251]”, the “Percent Inhibition” value (Concentration 0.111 μM) came to 100. In addition, the IC50 (class symbols A/B/C) was below 10 nM.
In the case of “[(1R,2S,4R)-4-{[5-({5-chloro-4-[(1R)-1-hydroxy-2-phenylethyl]-2-thienyl}carbonyl)pyrimidin-4-yl]amino}-2-hydroxycyclopentyl]methyl sulfamate and [(1R,2S,4R)-4-{[5-({5-chloro-4-[(1S)-1-hydroxy-2-phenylethyl]-2-thienyl}carbonyl)pyrimidin-4-yl]amino}-2-hydroxycyclopentyl]methyl sulfamate [I-136]”, under “Concentration 0.111 μM”, the “Percent Inhibition” value is reported as 96. Moreover, the IC50 (class symbols A/B/C) is below 10 nM.
With “[(1R,2S,4R)-4-{[5-({5-chloro-4-[(1S)-1,2,3,4-tetrahydroisoquinolin-1-yl]-2-thienyl}carbonyl)pyrimidin-4-yl]amino}-2-hydroxycyclopentyl]methyl sulfamate and [(1R,2S,4R)-4-{[5-({5-chloro-4-[(1R)-1,2,3,4-tetrahydroisoquinolin-1-yl]-2-thienyl}carbonyl)pyrimidin-4-yl]amino}-2-hydroxycyclopentyl]methyl sulfamate [I-279]”, under “Concentration 0.111 μM”, the “Percent Inhibition” value amounted to 99. Besides, the IC50 (class symbols A/B/C) is below 10 nM.
As to “{(1R,2S,4R)-4-[(5-{5-chloro-4-[(1R)-7-chloro-1,2,3,4-tetrahydroisoquinolin-1-yl]-2- [I-299]”, the “Percent Inhibition” value under setting [1] was determined as 98%. The IC50 under setting [2] was below 10 nM.
